# Laboratory results taken from ChEMBL document CHEMBL1201862, “PubChem BioAssay data set” (2004).
#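 Briefly, cells in 96-well plates were exposed to five compound concentrations for 48 h, and endpoints were estimated by linear interpolation. Abbreviation: GI50, concentration required for 50% inhibition of growth.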 The source made the active and inactive calls. Cut-off read from the data, not from the text of the source: active = GI50 up to about 1.1 µM and inactive = higher.
# How the values were obtained:
# Assay in all cases: NCI anticancer screen, dose series, 48 h
# A498 = tested on: A498
# A549 = tested on: A549
# CAKI-1 = tested on: CAKI-1
# CCRF-CEM = tested on: CCRF-CEM
# HCT-116 = tested on: HCT-116
# HL-60 = tested on: HL-60
# HOP-62 = tested on: HOP-62
# M14 = tested on: M14
# MOLT-4 = tested on: MOLT-4
# NCI-H460 = tested on: NCI-H460
# NCI-H522 = tested on: NCI-H522
# RPMI-8226 = tested on: RPMI-8226
# SF-268 = tested on: SF-268
# SK-MEL-5 = tested on: SK-MEL-5
# UACC-62 = tested on: UACC-62
# UO-31 = tested on: UO-31
# SR = tested on: SR
Compound,GI50 (A498),GI50 (A549),GI50 (CAKI-1),GI50 (CCRF-CEM),GI50 (HCT-116),GI50 (HL-60),GI50 (HOP-62),GI50 (M14),GI50 (MOLT-4),GI50 (NCI-H460),GI50 (NCI-H522),GI50 (RPMI-8226),GI50 (SF-268),GI50 (SK-MEL-5),GI50 (UACC-62),GI50 (UO-31),GI50 (SR)
O=C1c2ccccc2C(=O)c2c(NCCNCCO)ccc(O)c21,5.53 µM (inactive),2.45 µM (inactive),2.64 µM (inactive),3.15 µM (inactive),1.81 µM (inactive),2.61 µM (inactive),3.21 µM (inactive),3.23 µM (inactive),1.37 µM (inactive),1.44 µM (inactive),2.59 µM (inactive),3.22 µM (inactive),2.14 µM (inactive),3.18 µM (inactive),3.35 µM (inactive),1.49 µM (inactive),
C=CCC(OCCOCC)c1cc(OCCOCC)ccc1OC (centres undefined),,> 100 µM (inactive),> 100 µM (inactive),> 100 µM (inactive),,> 100 µM (inactive),> 100 µM (inactive),> 100 µM (inactive),> 100 µM (inactive),> 100 µM (inactive),> 100 µM (inactive),> 100 µM (inactive),> 100 µM (inactive),> 100 µM (inactive),> 100 µM (inactive),> 100 µM (inactive),
CCOc1ccc(NCC2CC/C(=C\c3ccccc3OC)C2=O)cc1 (centres undefined),19.6 µM (inactive),17.9 µM (inactive),12.5 µM (inactive),2.49 µM (inactive),4.33 µM (inactive),4.3 µM (inactive),27.4 µM (inactive),3.64 µM (inactive),2.75 µM (inactive),,1.94 µM (inactive),0.92 µM (active),7.29 µM (inactive),16.1 µM (inactive),11.8 µM (inactive),13.4 µM (inactive),
NCCOCn1cc(Cc2cccc(OCc3ccccc3)c2)c(=O)[nH]c1=O,> 10 µM (inactive),> 100 µM (inactive),,44.1 µM (inactive),86.7 µM (inactive),55.5 µM (inactive),,> 100 µM (inactive),73.8 µM (inactive),63.5 µM (inactive),,> 100 µM (inactive),,> 100 µM (inactive),> 100 µM (inactive),> 100 µM (inactive),
COC(=O)/C(=N\Nc1nc(S)nn1N)C(C#N)c1ccccc1 (centres undefined),> 100 µM (inactive),> 100 µM (inactive),,> 100 µM (inactive),> 100 µM (inactive),> 100 µM (inactive),> 100 µM (inactive),> 100 µM (inactive),> 100 µM (inactive),> 100 µM (inactive),> 100 µM (inactive),> 100 µM (inactive),> 100 µM (inactive),> 100 µM (inactive),> 100 µM (inactive),> 100 µM (inactive),
O=C(O)c1ccccc1[Se][Se]c1ccccc1C(=O)O,95.7 µM (inactive),51.1 µM (inactive),61.8 µM (inactive),56 µM (inactive),37.4 µM (inactive),35.9 µM (inactive),29.7 µM (inactive),72.9 µM (inactive),43.8 µM (inactive),30.8 µM (inactive),37.9 µM (inactive),66.2 µM (inactive),40.2 µM (inactive),> 100 µM (inactive),27.5 µM (inactive),2.73 µM (inactive),
N#Cc1c(-c2ccco2)cc(-c2ccc(NCc3nc4ccccc4[nH]3)cc2)nc1N,25 µM (inactive),29.8 µM (inactive),33.8 µM (inactive),27.4 µM (inactive),18.9 µM (inactive),20 µM (inactive),26.7 µM (inactive),19.5 µM (inactive),15.3 µM (inactive),18.1 µM (inactive),18.8 µM (inactive),19.2 µM (inactive),30.1 µM (inactive),16 µM (inactive),16.6 µM (inactive),16.6 µM (inactive),
COc1cc(/C=C(\NC(=O)c2ccccc2)c2nc3c(O)nc(S)nc3[nH]2)cc(OC)c1OC,,> 100 µM (inactive),> 100 µM (inactive),> 100 µM (inactive),,> 100 µM (inactive),,> 100 µM (inactive),> 100 µM (inactive),,> 100 µM (inactive),,> 100 µM (inactive),> 100 µM (inactive),> 100 µM (inactive),> 100 µM (inactive),> 100 µM (inactive)
CC(=O)OCCOCNC(=S)N/N=C(\C)c1ccco1,> 100 µM (inactive),> 100 µM (inactive),,> 100 µM (inactive),> 100 µM (inactive),,> 100 µM (inactive),> 100 µM (inactive),,> 100 µM (inactive),> 100 µM (inactive),,> 100 µM (inactive),> 100 µM (inactive),> 100 µM (inactive),> 100 µM (inactive),
Brc1ccc(C2SCc3nc4ccccc4n32)cc1 (centres undefined),,19 µM (inactive),14.4 µM (inactive),15.7 µM (inactive),6.3 µM (inactive),3.19 µM (inactive),7.57 µM (inactive),12.4 µM (inactive),13.4 µM (inactive),12.9 µM (inactive),2.3 µM (inactive),5.08 µM (inactive),13.6 µM (inactive),3.72 µM (inactive),6.68 µM (inactive),11 µM (inactive),7.6 µM (inactive)
COC(=O)c1nc(C(=O)OC)c2c([nH]c3ccccc32)c1C(=O)OC,> 100 µM (inactive),> 100 µM (inactive),> 10 µM (inactive),71.1 µM (inactive),> 100 µM (inactive),,> 100 µM (inactive),> 100 µM (inactive),82.6 µM (inactive),46.1 µM (inactive),> 10 µM (inactive),,,9.79 µM (inactive),85.1 µM (inactive),21.3 µM (inactive),70.3 µM (inactive)
O=C1C2=C(c3ccccc31)C(c1ccc(Cl)cc1)N1C(=O)CCSC1=N2 (centres undefined),> 100 µM (inactive),69.3 µM (inactive),> 100 µM (inactive),51.1 µM (inactive),69.2 µM (inactive),34.8 µM (inactive),> 100 µM (inactive),> 100 µM (inactive),41.8 µM (inactive),,45.5 µM (inactive),39 µM (inactive),> 100 µM (inactive),47.9 µM (inactive),54.3 µM (inactive),42.9 µM (inactive),
CCCCCC(/C=C/[C@@H]1[C@H]2CC(=O)O[C@H]2C[C@H]1N1CCOCC1)OC1CCCO1 (some centres undefined),> 100 µM (inactive),> 100 µM (inactive),> 100 µM (inactive),> 100 µM (inactive),> 100 µM (inactive),> 100 µM (inactive),> 100 µM (inactive),> 100 µM (inactive),> 100 µM (inactive),> 100 µM (inactive),> 100 µM (inactive),> 100 µM (inactive),> 100 µM (inactive),> 100 µM (inactive),> 100 µM (inactive),> 100 µM (inactive),
